From paper PMC8584349 (International Journal of Molecular Sciences, 2021) come the findings set out here.

For test [1], the system named is SARS-CoV PsV. The test can be described thus: microbe, parasite or virus in culture. In kind it is cell-based. The following applies: Severe acute respiratory syndrome coronavirus, read-out: IC50, inhibition of SARS-CoV PsV infection.
The test system of test [2] is MERS-CoV PsV. The test can be described thus: microbe, parasite or virus in culture. The following applies: Middle East respiratory syndrome-related coronavirus.
For test [3], the system named is SARS-CoV-2 PsV.
Test [4] concerns SARS-CoV-2 PsV. The test can be described thus: microbe, parasite or virus in culture.
For test [5], the system named is MERS-CoV PsV. The following applies: in 25-HC/EK1 combination versus alone.
The subject of test [6] is authentic HCoV-229E. Description: microbe, parasite or virus in culture. In kind it is cell-based. The following applies: Human coronavirus 229E; Huh-7 cell line; cells pretreated with 25-HC 8–12 h; CCK-8; read-out: IC50, inhibition of authentic HCoV-229E infection.
The test system of test [7] is SARS-CoV-2 PsV. The test can be described thus: microbe, parasite or virus in culture. Type of test: cell-based. The following applies: Severe acute respiratory syndrome coronavirus 2; target cells pretreated with 25-HC 8–12 h; luciferase; read-out: IC50, inhibition of SARS-CoV-2 PsV infection.
The subject of test [8] is SARS-CoV PsV. The following applies: 12 h.
Test [9] has as its system SARS-CoV-2 VOC PsVs. The following applies: 12 h.
For test [10], the system named is authentic HCoV-229E. The test can be described thus: Authentic virus inhibition assay, HCoV-229E in Huh-7 cells. The following applies: Huh-7 cell line, CCK8, triplicate, repeated twice, read-out: IC50, inhibition of HCoV-229E replication. In kind it is cell-based. The protocol:
(§1) Inhibition of authentic coronaviruses was performed as previously reported. Briefly, authentic HCoV-OC43 or HCoV-229E was coincubated with a test peptide at different concentrations at 37 °C for 30 min. Then, these authentic virus–peptide mixtures were added into target cells in a 96-well plate (Huh-7 cell line for HCoV-229E, RD cell line for HCoV-OC43). CCK8 solution was used to assess virus-induced cytopathy when the cytopathic effect (CPE) of DMSO-treated target cells was clear and the IC50 value was calculated.

The test system of test [11] is authentic HCoV-OC43. Description: Authentic virus inhibition assay, HCoV-OC43 in RD cells. The following applies: RD cell line, CCK8, triplicate, repeated twice, read-out: IC50, inhibition of HCoV-OC43 replication. Type of test: cell-based. The protocol:
as §1

Each structure is given as a SMILES string. Read-outs that look alike come from different tables or passages of the source.

With `C[C@H](CCCC(C)(C)O)[C@H]1CC[C@H]2[C@@H]3CC=C4C[C@@H](O)CC[C@]4(C)[C@H]3CC[C@]12C` [25-HC, 25-Hydroxycholesterol], the IC50 was 2.79 µM in [1]; 6.8 µM in test [2] (read-out: IC50, tested alone); 1.6 µM in [2] (read-out: IC50, tested in EK1/25-HC combination); 9.3 µM in test [4] (Severe acute respiratory syndrome coronavirus 2, read-out: IC50, tested alone); 3.7 µM in test [4] (Severe acute respiratory syndrome coronavirus 2, read-out: IC50, tested in EK1/25-HC combination); 5.35 µM in test [6]. Besides, the IC50 in [7] stood at 4.11 µM. The dose reduction in test [3] (SARS-CoV-2 PsV, in 25-HC/EK1 combination versus alone) was 3 fold; in test [5] it was 4 fold.

As to `CC[C@H](C)[C@H](NC(=O)[C@H](C)NC(=O)[C@H](CCC(=O)O)NC(=O)[C@H](CCC(=O)O)NC(=O)[C@H](CC(C)C)NC(=O)[C@H](CCCCN)NC(=O)[C@H](CCCCN)NC(=O)[C@H](CCSC)NC(=O)[C@H](CCC(=O)O)NC(=O)[C@H](Cc1ccc(O)cc1)NC(=O)[C@H](CCC(=O)O)NC(=O)[C@H](CC(C)C)NC(=O)[C@H](CC(=O)O)NC(=O)[C@H](CC(C)C)NC(=O)[C@H](Cc1ccccc1)NC(=O)[C@@H](NC(=O)[C@@H](NC(=O)[C@H](CC(N)=O)NC(=O)[C@@H](NC(=O)[C@H](CCC(N)=O)NC(=O)[C@H](CC(=O)O)NC(=O)[C@H](CC(C)C)NC(=O)[C@@H](N)CO)[C@@H](C)CC)C(C)C)[C@@H](C)O)C(=O)N[C@@H](CCCCN)C(=O)N[C@@H](CCCCN)C(=O)N[C@@H](CC(C)C)C(=O)N[C@@H](CCC(=O)O)C(=O)N[C@@H](CCC(=O)O)C(=O)N[C@@H](CO)C(=O)N[C@@H](Cc1ccc(O)cc1)C(=O)N[C@H](C(=O)N[C@@H](CC(=O)O)C(=O)N[C@@H](CC(C)C)C(=O)N[C@@H](CCCCN)C(=O)N[C@@H](CCC(=O)O)C(=O)N[C@@H](CC(C)C)C(=O)O)[C@@H](C)CC` [EK1], the IC50 was 2.8 µM in [8]; 0.48 to 4.61 µM in test [9]; 2.2 µM in test [10]; 0.84 µM in test [3] (PsV, 12 h); 1.51 µM in test [11].
